Reference: ChEMBL document CHEMBL4482324, “Ash1l inhibitors and methods of treatment therewith” (2017)

Molecular target: Histone-lysine N-methyltransferase ASH1L (Homo sapiens, UniProt Q9NR48)
Experiment: Inhibition of MOCR-fused ASH1L SET-BAH ( 2069 to 2833 amino acids) (unknown origin) expressed as in Escherichia coli BL21 (DE3) T1R cells using SAM and chicken mono/dinucleosomes incubated for 1 hr by scintillation counting assay

NC(=S)c1cccc(-c2cn(CCCC(F)(F)F)c3cc(N)ccc23)c1
IC50: < 20 µM

NC(=S)c1cccc(-c2cccc3[nH]ccc23)c1O
IC50: > 100 µM

NC(=S)c1cccc(-c2cn(CCC(F)F)c3cc4c(cc23)CCNC4)c1
IC50: < 20 µM

NC(=S)c1cccc(-n2cc(CC(CF)CF)c3cc(N)ccc32)c1
IC50: < 20 µM

NC(=S)c1cc(-c2ccccc2)cs1
IC50: > 100 µM

Cc1cc(-c2cccc(C(N)=S)c2)c(C)cc1O
IC50: > 100 µM

NC(=S)c1cccc(-c2cn(CC(CF)CF)c3cc(NC(=O)c4cnc[nH]4)ccc23)c1
IC50: < 20 µM

NC(=S)c1cccc(-c2cn(CC3CC3)c3cc(CO)ccc23)c1
IC50: < 20 µM

NC(=S)c1cccc(-n2cc(CCC(F)F)c3cc(CO)ccc32)c1
IC50: < 20 µM

CC(O)Cn1cc(-c2cccc(C(N)=S)c2)c2ccccc21 (centres undefined)
IC50: 20 to 100 µM

NC(=S)c1cccc(-c2cn(CCC(F)F)c3cc(CF)ccc23)c1
IC50: < 20 µM

NC(=S)c1cccc(-c2c[nH]c3cnc(N)cc23)c1
IC50: > 100 µM

NC(=S)c1cccc(-c2cn(CC(CCF)CC(F)F)c3cc(N)ccc23)c1 (centres undefined)
IC50: < 20 µM

NC(=S)c1cccc(-c2cn(CC3(C(F)(F)F)CC3)c3cc(N)ccc23)c1
IC50: < 20 µM

NC(=S)c1cccc(-c2cn(CC(CF)C(F)F)c3cc(N)ccc23)c1 (centres undefined)
IC50: < 20 µM

NC(=S)c1cc(-c2cn(CCC(F)F)c3cc(CO)ccc23)ccn1
IC50: < 20 µM

NC(=S)c1cccc(-c2cccc3[nH]c(CNCc4ccccc4)cc23)c1
IC50: > 100 µM

CS(=O)(=O)N1CCC(n2cc(-c3cccc(C(N)=S)c3)c3ccc(CNC(=O)Cc4cc(NCC5CCCCC5)c[nH]4)cc32)CC1
IC50: < 20 µM

Cc1cc(O)ccc1-c1cccc(C(N)=S)c1
IC50: > 100 µM

NC(=S)c1cccc(-n2cccc2)c1
IC50: > 100 µM

COCc1cc2c(-c3cccc(C(N)=S)c3)cccc2n1C
IC50: 20 to 100 µM

CCC(O)c1ccc2c(-c3cccc(C(N)=S)c3)cn(CCC(F)F)c2c1 (centres undefined)
IC50: < 20 µM

Nc1ccc2c(-c3ccc4ccnc(N)c4c3)cn(CCC(F)F)c2c1
IC50: < 20 µM

NC(=S)c1cccc(-c2cn(CC3(O)CCC3)c3cc(CO)ccc23)c1
IC50: < 20 µM

NC(=S)c1cc(F)cc(-c2ccc(O)cc2)c1
IC50: > 100 µM

NC(=S)c1cccc(-c2cn(CCCC(F)(F)F)c3cc(CNC(=O)Cc4csc(N)n4)ccc23)c1
IC50: < 20 µM

CN1c2ccccc2CCc2ccc(C(N)=S)cc21
IC50: > 100 µM

NC(=S)c1ccc(-c2cn(CCC(F)F)c3cc(CO)ccc23)[nH]1
IC50: < 20 µM

NC(=S)c1cccc(-c2cn(CC(CF)CF)c3cc(C(O)CO)ccc23)c1 (centres undefined)
IC50: < 20 µM

NC(=S)c1cccc(-c2cn(CCC(F)F)c3cc(CO)ccc23)n1
IC50: < 20 µM

NC(=S)c1cccc(-c2cn(C3CCOCC3)c3cc(-c4ccn[nH]4)ccc23)c1
IC50: < 20 µM

NC(=S)c1cccc(-c2cn(C3CCN(S(=O)(=O)CCNC(=O)COc4cccc5c4C(=O)N(C4CCC(=O)NC4=O)C5=O)CC3)c3cc(CNc4nnc(N)s4)ccc23)c1 (centres undefined)
IC50: < 20 µM

NCc1ccc(-c2cccc(C(N)=S)c2)cc1
IC50: > 100 µM

NC(=O)C1CCN(Cc2ccc3c(-c4cccc(C(N)=S)c4)cn(CCCC(F)(F)F)c3c2)CC1
IC50: 20 to 100 µM

NC(=S)c1cccc(-c2cn(CC3(F)CC3)c3cc(CO)ccc23)c1
IC50: < 20 µM

NC(=S)c1cccc(-c2cn(CCCC(F)(F)F)c3cc(CNS(=O)(=O)c4c[nH]cn4)ccc23)c1
IC50: < 20 µM

CCCn1cnc(CC(=O)NCc2ccc3c(-c4cccc(C(N)=S)c4)cn(C4CCN(S(=O)(=O)CCC)CC4)c3c2)c1
IC50: < 20 µM

NC(=S)c1cccc(-c2cn(CCC(F)F)c3cc4cc[nH]c4cc23)c1
IC50: < 20 µM

CC(N)c1cccc(-c2cccc3[nH]ccc23)c1 (centres undefined)
IC50: > 100 µM

NC(=S)c1cccc(-c2ccccc2)c1
IC50: > 100 µM

NC(=S)c1cccc(-c2ccccn2)c1
IC50: > 100 µM

NC(=S)c1cccc(-c2cn(CCC(F)F)c3cc(CO)ccc23)c1
IC50: < 20 µM

NC(=S)c1cccc(-c2cn(CC3CCCC3)c3cc(N)ccc23)c1
IC50: < 20 µM

CS(=O)(=O)N1CCC(n2cc(-c3cccc(C(N)=S)c3)c3ccc(CNC(=O)Nc4cc[nH]n4)cc32)CC1
IC50: < 20 µM

Cc1nc(CS(=O)(=O)NCc2ccc3c(-c4cccc(C(N)=S)c4)cn(C4CCN(S(C)(=O)=O)CC4)c3c2)cs1
IC50: < 20 µM

NC(=S)c1cc(-c2ccc(O)cc2)ccc1F
IC50: > 100 µM

Cc1cc(C(N)=S)cc(-c2ccc(O)cc2)c1
IC50: > 100 µM

CNc1ccc(-c2cccc3[nH]ccc23)cc1C(N)=S
IC50: > 100 µM

NC(=S)c1cccc(-c2cc(C(F)(F)F)cc3c2ccn3CCO)c1
IC50: 20 to 100 µM

NC(=S)c1cccc(-c2cn(CCCC(F)(F)F)c3cc(CO)ccc23)c1
IC50: < 20 µM

NC(=S)c1cccc(-c2cn(C3CCC3)c3cc(CO)ccc23)c1
IC50: < 20 µM

CS(=O)(=O)N1CCC(n2cc(-c3cccc(C(N)=S)c3)c3ccc(CNC(=O)Cc4ccc[nH]4)cc32)CC1
IC50: < 20 µM

NC(=S)c1cc(-c2cccc3[nH]ccc23)ccc1O
IC50: > 100 µM

NC(=S)c1cccc(-c2cc(C(F)(F)F)cc3c2ccn3CC(F)(F)F)c1
IC50: 20 to 100 µM

NC(=S)c1ccc(F)c(-c2cn(CCCC(F)(F)F)c3cc(N)ccc23)c1
IC50: < 20 µM

NC(=O)c1ccc2c(-c3cccc(C(N)=S)c3)c[nH]c2c1
IC50: > 100 µM

Cc1cc2c(-c3cccc(C(N)=S)c3)ccc(O)c2[nH]1
IC50: 20 to 100 µM

NC(=S)c1cccc(-c2cccc(O)c2)c1
IC50: > 100 µM

NC(=S)c1cccc(-c2cn(Cc3cnc[nH]3)c3cc(CO)ccc23)c1
IC50: < 20 µM

NC(=S)c1cccc(-c2cccc3c2ccn3CO)c1
IC50: 20 to 100 µM

NC(=S)c1cncc(-c2ccc(O)cc2)c1
IC50: > 100 µM

COc1c(C(N)=S)cccc1-c1ccc(O)cc1
IC50: > 100 µM

NCc1ccc2c(c1)c(CC(CF)CF)cn2-c1cccc(C(N)=S)c1
IC50: < 20 µM

CNCc1ccc2c(-c3cccc(C(N)=S)c3)c[nH]c2c1
IC50: 20 to 100 µM

NC(=S)c1cccc(-c2cn(CCCC(F)(F)F)c3cc(CNC(=O)CCc4c[nH]cn4)ccc23)c1
IC50: < 20 µM

NC(=S)c1cccc(-c2cn(CCC(F)F)c3cc(CNS(=O)(=O)C(F)(F)F)ccc23)c1
IC50: < 20 µM

NC(=O)c1cccc(-c2cn(CCC(F)F)c3cc(N)ccc23)c1
IC50: < 20 µM

NC(=S)c1cccc(-c2cn(CCCC(F)(F)F)c3cc(CNC(=O)c4cscn4)ccc23)c1
IC50: < 20 µM

NC(=S)c1c[nH]c(=O)c(-c2cn(CCC(F)F)c3cc(CO)ccc23)c1
IC50: < 20 µM

NC(=S)c1cccc(-c2cn(CC3(F)CCC3)c3cc(CO)ccc23)c1
IC50: < 20 µM

NC(=S)c1cccc(-c2ccc(O)c3c2CCC3=O)c1
IC50: > 100 µM

NC(=S)c1cccc(-c2cn(C3CCOCC3)c3cc(N)ccc23)c1
IC50: < 20 µM

CCCS(=O)(=O)N1CCC(n2cc(-c3cccc(C(N)=S)c3)c3ccc(CNC(=O)Cc4c[nH]cn4)cc32)CC1
IC50: < 20 µM

CS(=O)(=O)N1CCC(n2cc(-c3cccc(C(N)=S)c3)c3ccc(N)cc32)CC1
IC50: < 20 µM

NC(=O)c1cccc(-c2cn(CC(CF)CF)c3cc(N)ccc23)c1
IC50: < 20 µM

NC(=S)c1cccc(-c2cccc3[nH]c(CO)cc23)c1
IC50: > 100 µM

CC(=O)NCc1ccc2c(-c3cccc(C(N)=S)c3)c[nH]c2c1
IC50: 20 to 100 µM

NC(=S)c1cccc(-c2cn(CCCC(F)(F)F)c3cc(CNCc4c[nH]cn4)ccc23)c1
IC50: < 20 µM

CC(C)(C)OC(=O)Nc1nc(CC(=O)NCc2ccc3c(-c4cccc(C(N)=S)c4)cn(CCCC(F)(F)F)c3c2)cs1
IC50: < 20 µM
